Usually inhibition in vivo stands for the change of the read-out against control, counted positive when it falls. Lower therefore signals little suppression. As a reminder, the LD50 is the dose at which mortality reaches 50%. Low values mean a more toxic substance, high ones a less toxic substance.

We go through five compounds from patent US4652646A, “Thiazolo[3,2-a][1,2,3]triazolo[4,5-d]pyrimidine and [1,3,4]thiadiazolo[3,2-a][1,2,3]triazolo[4,5-d]pyrimidine derivatives” (Daiichi Seiyaku Co., Ltd., priority 1984, dated 1987).

Data set [1] relates to release of histamine induced by passive peritoneal anaphylaxis (PPA) reaction. As to the kind of experiment: Passive Peritoneal Anaphylaxis (PPA) test: inhibition of histamine release. The note with it: ip, 5 min; rat PPA; 1 mg/kg intraperitoneally 30 seconds before egg albumin. Type of data set: in vivo, Sprague-Dawley male rats. How it is done: (§1) 1 mg of egg albumin dissolved in 0.2 ml of saline was intramuscularly administered to each of Sprague-Dawley male rats weighing 300 to 350 g (Charles River Japan Inc.), and then 1 ml of a suspension of sterilized Bordetella pertussis (2×10^10 cells) in saline was administered intraperitoneally to the rats. After 14 days, blood was drawn from the rats to obtain an antiserum.
(§2) The test was conducted according to the method of Orange et al [Orange, R. P., Stechschulte, D. J., Austen, K. F., J. Immunol., 105, pp1087-1095 (1970)]. Sprague-Dawley male rats weighing 250 to 400 g (5 rats per group) were passively sensitized by administering 5 ml of 5-fold dilution antiserum (prepared by diluting the above antiserum with saline). 2 hours later, 5 ml of an egg albumin solution prepared by dissolving 2 mg of egg albumin in phosphate buffered saline containing 0.9 mM of calcium chloride was administered intraperitoneally to the rats. After 5 minutes, the rats were sacrificed by decapitation, and peritoneal fluid was pooled and centrifuged at 300×G at 4° C. for 10 minutes. Then, amounts of SRS-A and histamine in the supernatant were determined.
The quantitative determination of histamine was carried out according to the method of Shore et al [Shore, P. A., Bunkhalter, A. H., Cohn, V. H., J. Pharmacol. Exp. Ther., 127, pp182-186 (1959)], and the total released amount of histamine per rat (μg/rat) was calculated.
(§3) In this test, the test compound of this invention was administered as follows. 2 mg of a test compound was dissolved in 10 ml of phosphate buffered saline containing 0.9 mM of calcium chloride, an equimolar amount of sodium hydroxide to test compound, 2% of dimethyl sulfoxide and 2% of ethanol, and the solution was administered intraperitoneally to the rats at a dose of 1 mg/kg 30 seconds before the injection of egg albumin for inducing PPA. For a control group, the same solution without test compound and sodium hydroxide was administered.
(§4) The inhibitory activity on release of histamine and SRS-A by the PPA reaction in the treated group was calculated by the following formula: [formula] wherein: a represents a mean value of released amount in the control group.
(§5) b represents a mean value of released amount in the treated group.
(§6) c represents a mean value of spontaneously released amount.

For data set [2] the following is noted: background art; cited from earlier work.
Data set [3] relates to passive cutaneous anaphylaxis (PCA) reaction. As to the kind of experiment: Passive cutaneous anaphylaxis (PCA) test. The format is in vivo, Sprague-Dowley male rats. The note with it: 0.5 h; rat PCA; DSCG administered at 100 mg/kg of body weight.
The test system of data set [4] is release of SRS-A induced by passive peritoneal anaphylaxis (PPA) reaction. As to the kind of experiment: Passive Peritoneal Anaphylaxis (PPA) test: inhibition of SRS-A release. The format is in vivo, Sprague-Dawley male rats. The note with it: rat PPA; for inhibition in vivo at 1 mg/kg: ip, 5 min, 1 mg/kg intraperitoneally 30 seconds before egg albumin. How it is done: as §1, §2
The quantitative determination of SRS-A was carried out according to the method of Stechschulte et al [Stechschulte, D. J., Auste, K. F., Bloch, K. J., J. Exp. Med., 125, pp127-147 (1967)] using a guinea pig ileum specimen in the presence of mepyramine and atropine. The amount of SRS-A was expressed in terms of unit, i.e., one unit of SRS-A activity was defined as the concentration required to produce a contraction of guinea pig ileum equal in amplitude to that produced by 5 ng of histamine, and the total released amount of SRS-A per rat (unit/rat) was calculated.
as §3, §4, §5, §6

Data set [5] deals with passive cutaneous anaphylaxis (PCA) reaction. As to the kind of experiment: Passive cutaneous anaphylaxis (PCA) test. Type of data set: in vivo, Sprague-Dowley male rats. The note with it: rat PCA; for inhibition in vivo at 20 mg/kg: 0.5 h, 20 mg/kg in 0.5% CMC, oral, 30 minutes before antigen challenge. How it is done: as §1
In this test, the antiserum described in Test Example 1 was used after it was diluted with saline so as to provide a blue spot having a diameter of about 10 mm in the following control group.
Sprague-Dowley male rats weighing about 180 g (5 rats per group) were sensitized by injecting 0.05 ml of the diluted antiserum into the shaved dorsal skin. 48 hours later, the animals were challenged with 1 ml of saline containing 5 mg of egg albumin and 5 mg of Evans blue dye administered via a tail vein. 30 minutes later, the rats were sacrificed by decapitation. The dorsal skin was removed, and the long and short axis of the each wheal was measured.
In this test, the test compound was administered as follows. 20 mg of a test compound was suspended in a 0.5% CMC aqueous solution, and the suspension was administered to each of the rats in an amount of 20 mg/kg 30 minutes before the antigen challenge. For a control group, only a 0.5% CMC solution was administered.
The inhibitory activity on the PCA reaction in the treated group was calculated by the following formula: [formula] wherein: a represents a mean value of blue spot area in the control group.
b represents a mean value of blue spot area in the treated group.

Data set [6] in a line: Acute oral toxicity (LD50) in rats. As to conditions: rat, in vivo, oral administration.

As to `O=C(O)c1cc(=O)c2c(OCC(O)COc3cccc4oc(C(=O)O)cc(=O)c34)cccc2o1` [DSCG, Sodium Cromoglycate, reference compound], testing at 1 mg/kg in data set [1] gave an inhibition in vivo of 93%. In addition, in data set [2], the “effectiveness in oral administration (in words)” value is reported as “not effective in oral administration”. In addition, the inhibition in vivo at 100 mg/kg in data set [3] amounted to 8%. Besides, in data set [4], the inhibition in vivo at 1 mg/kg turned out to be 0% and the “inhibition of release of SRS-A in the PPA reaction (in words)” value is “did not inhibit the release of SRS-A in the PPA reaction”. The “inhibition of the PCA reaction in oral administration (in words)” value in data set [5] (oral administration) is “did not inhibit the PCA reaction in oral administration”.
The compound `O=c1c2[nH]nnc2nc2sc(CCc3ccccc3)nn12` [Example 9, 6-(2-Phenylethyl)-[1,3,4]thiadiazolo[3,2-a][1,2,3]triazolo[4,5-d]pyrimidin-9(1H)-one] gave an LD50 in data set [6] of more than 2000 mg/kg. In addition, the inhibition in vivo at 1 mg/kg in data set [1] is 80%; in data set [4] it was 50%. In data set [5], this compound yielded an inhibition in vivo at 20 mg/kg of 52%.
As for `O=c1c2[nH]nnc2nc2sc(-c3ccco3)nn12` [Example 17], the LD50 in data set [6] was more than 2000 mg/kg. Moreover, the inhibition in vivo at 1 mg/kg was 82% in data set [1] and 55% in data set [4]. The compound further had an inhibition in vivo at 20 mg/kg in data set [5] of 50%.
Compound `O=c1c2[nH]nnc2nc2sc(-c3cccs3)nn12` [Example 23] showed an LD50 in data set [6] of more than 2000 mg/kg. Further, the inhibition in vivo at 1 mg/kg in data set [1] amounted to 84%; in data set [4], 51%. For the same compound, in data set [5], the inhibition in vivo at 20 mg/kg was found to be 31%.
For `O=c1c2[nH]nnc2nc2sc(Cc3ccccc3)nn12` [Example 42] the same measures were more than 2000 mg/kg, 99%, 54% and 48%.
